According to patent US20120295805A1, “SOLID PHASE METHODS FOR THE[…] KINETIC QUANTIFICATION OF INTERACTIONS BETWEEN NUCLEIC ACIDS AND SMALL MOLECULES” (priority 2011, published 2012):

Assays:
DNA = details: reported for 0.016 M Na+ in ref. 38, corrected to 0.8 M Na+ using ref. 76; cited from earlier work
[1] = system: MB 5′ Fluorescein-CAATTCCTCT12GAATTG-BHQ1-C7-Amine 3′ with high affinity AATT site in the stem; assay: TIRF-imaged melt curves of surface-immobilized molecular beacons (MB microarray); format: binding; details: 2 μM netropsin, 0.1 M pH 7 phosphate buffer, average of 9 spots
Method: The field of view is 4 mm diameter. (B) Melting curves of surface-immobilized MBs without and with 2 μM netropsin in 0.1 M phosphate buffer. […] (C) Melting curves under same conditions as in (B), but for MBs in solution. MBs were assumed closed once data with and without netropsin converged at lower temperatures.
BHQ1 is Black Hole Quencher 1, and the 3′ amine is used for surface immobilization via the stem. Repetition with the same MBs printed on commercial aldehyde microarray slides produced a 4-fold gain with transition observed at a similar temperature, FIG. 2A. […] (56-65) In such studies, opening of the MBs is driven by hybridization at the loop section, as opposed to thermal denaturation as in the data of FIG. 2. Efforts to improve the hybridization-induced gains included optimization of pH and salt composition (60-61, 63), insertion of spacers to distance MBs from the solid support, (63) changes in the chemical nature of the solid support (60-61), and isolation of MBs on the surface down to the single-molecule limit. (62) These approaches, however, have not solved the decreased gain, although effective workarounds have been found for hybridization applications (e.g. use of the solid support itself to provide better quenching (66-70)). Surface-immobilized SPs have also produced approximately 4-fold gains upon hybridization. (64) […]

[2] = system: 10mer DNA sequence AGAATTGAGT possessing a high-affinity site (-AATT-); assay: Electrochemically-determined surface melt curves (solid phase DNA denaturation, cyclic voltammetry of ferrocene-labeled strand); format: binding; details: 2×10^−6 M netropsin
Excerpt: (B) Shape comparison of solution and surface melting transitions.
In this example, one strand was immobilized while the electroactively-labeled complementary strand was present in solution. Immobilization was realized through a single thiolate (—S—Au) linkage between DNA and the gold electrode support, with mercaptohexanol passivation used to block the remaining surface. (86) Hybridization occurred to the extent governed by thermodynamics under the imposed conditions of temperature and drug concentration. The extent of hybridization was tracked as a function of temperature with cyclic voltammetry, which allows determination of the coverage of double-stranded molecules from the total charge derived from their ferrocene labels. (87-88)
A number of noteworthy conclusions follow from FIG. 5A. The cooling and heating cycles superpose, confirming closeness to equilibrium at the tested scan rate of 0.4° C./min.
This is expected since netropsin prefers to bind to double-stranded DNA. (89) The free energy of binding (i.e. affinity) determined from the surface approach (FIG. 5A) is in reasonable agreement with solution methods. […]

Cn1cc(NC(=O)c2cc(NC(=O)CN=C(N)N)cn2C)cc1C(=O)NCCC(=N)N [netropsin]
ΔΔG°25C based on solution methods (DNA): -9.2 kcal/mol
Effect on melt transition (TM) of surface-immobilized MBs [1]: TM shifting to higher temperatures
Effect on denaturation transition (electrochemical melt curve) ([2]; 0.5 M pH 7 sodium phosphate buffer, scan rate 0.4° C./min): shifts denaturation to higher temperatures
ΔΔG°25C (increment of ΔG° of melting attributed to the drug; free energy of binding) ([2]; surface approach, 0.5 M pH 7 sodium phosphate buffer (0.8 M Na+), calculated at 25° C. from fitted ΔH° and ΔS°): -8.9 kcal/mol
